Experimental data from a melting point compilation (Tetko et al.; mined from patent text by program, amines drawn as free bases though some values may be those of a salt).

Row | SMILES | melting point [°C]
1 | O=C(O)CN1C(=O)c2ccc(C(=O)O)cc2C1=O | 262 to 265
2 | CCCCCCCCCCCCCCCCSCC(CNS(=O)(=O)CCCI)n1nnc(C)n1 (centres undefined) | 50 to 51
3 | C(=C\c1cc(/C=C/c2ccccc2OCc2ccccn2)[nH]n1)/c1ccc2[nH]ccc2c1 | 220 to 223
4 | COc1c(F)c(F)c(C2=CC(=O)NC2=O)c(F)c1F | 91
5 | CC(C)(C)c1cc(N=Nc2cc(Cl)ccc2Cl)c(O)c(C(C)(C)C)c1 | 121 to 126
6 | CC(C)(C)NC(=O)OC1OCN(c2cccc(C(F)(F)F)c2)C1=O (centres undefined) | 125 to 126
7 | C=Cc1cc(CCNc2ncnc3c(F)ccc(F)c23)ccc1Oc1cc(C(F)(F)F)ccn1 | 86
8 | COC(c1ccc(Cl)c2nc3n(c12)CCCN3c1ccc(Cl)cc1Cl)C(F)(F)F (centres undefined) | 161 to 163
9 | Nc1ccc(S(=O)(=O)CI)cc1 | 170 to 172
10 | O=c1c2c(cnn1-c1ccccc1)C(Cc1ccccc1)NCCS2 (centres undefined) | 174 to 175
11 | CC(=O)Nc1cc(N(C)C)ccc1C1(c2ccc(N(C)C)cc2N(C)C)OC(=O)c2ccccc21 (centres undefined) | 97 to 136
12 | NC[C@@H]1CN(c2nc3c(cc2F)c(=O)c(C(=O)O)cn3C2CC2)C[C@@H]1Cl (relative stereo) | 174 to 177
13 | O=P1(O)Oc2c(-c3ccccc3)cc(Cl)cc2-c2ccccc21 | 260
14 | Cc1c(C#N)sc2nc(-c3ccc4c(c3)OCO4)nc(N3CCOCC3)c12 | 197 to 198
15 | COC1(OCc2ccccc2)C=C2C(=CC1)CCN(CCO)C2C1(c2ccccc2Cl)CC1 (centres undefined) | 65 to 70
16 | Cc1nc(Cl)c(C)c(Cl)n1 | 46 to 47
17 | COc1cc([N+](=O)[O-])c(CO)c(OC)c1OC | 69 to 70
18 | NC(=O)CCNC(=O)c1cccc(-c2cccc3oc(Cc4cccc(C(F)(F)F)c4)cc23)c1 | 155 to 156
19 | O=C(Nc1ccc(Oc2ccnc(NCC3OCCO3)n2)c2ccccc12)c1cc(F)cc(N2CCCCC2)c1 | 96 to 98
20 | CC(=O)OCc1c(-c2cc(Nc3cc(CN4CCC4)n(C)n3)c(=O)n(C)n2)cccc1-n1ncc2cc(C(C)(C)C)cc(F)c2c1=O | 214 to 217
21 | O=c1cc(-c2cc(OCc3ccccc3)cc(OCc3ccccc3)c2)oc2cc(OCC3CO3)ccc12 (centres undefined) | 172 to 173
22 | S=C(NCc1cccnc1)NC(Cc1cccc2ccccc12)=Nc1ccccc1 | 162 to 163
23 | NC(=O)c1nc(C2CC2)nc(NCc2ccco2)c1Cl | 126 to 128
24 | CCCc1c(N)c(C(N)=O)nn1C | 170 to 174
25 | Cc1cn(C2CC(N=[N+]=[N-])C(CO)O2)c(=O)nc1N (centres undefined) | 85 to 88

Row | SMILES | melting point [°C]
26 | Cc1cc(-c2cc(C(F)(F)F)n3ncc(-c4nc(-c5ccc(N)nc5)no4)c3n2)ccc1C(F)(F)F | 220
27 | Cc1cc([N+](=O)[O-])c(C)cc1Oc1cccc(C(F)(F)F)c1 | 68 to 71
28 | O=C(NC(CO)CNS(=O)(=O)c1ccc(Oc2ccccc2)cc1)OCc1ccccc1 (centres undefined) | 86 to 89
29 | O=c1cc(O)c(Cl)cn1COCc1ccccc1 | 165 to 167
30 | Nc1ccc(C(=O)N2Cc3cccn3Cc3ccccc32)cc1 | 166 to 168
31 | COc1cc(O)ccc1OCc1ccccc1 | 84
32 | CC(=O)C1=C(O)C(=C(C)Nc2ccccc2Cl)C(=O)OC1=O | 143 to 145
33 | CC1SC(=NO)C(C)(C)NC1=O (centres undefined) | 199 to 202
34 | COc1cc(OC)c2c(=O)cc(-c3ccc(C)cc3)oc2c1C1=CCN(C)CC1 | 113 to 114
35 | CN1C(=N)C(=O)c2ccccc21 | 99 to 102
36 | NC(=NCC(F)(F)F)Nc1cncc(SCCCC(=O)Nc2ccccc2)n1 | 165 to 167
37 | Cc1nc(Cl)c([N+](=O)[O-])c(NCC(C)(C)NC(=O)OC(C)(C)C)c1C | 97 to 100
38 | CCc1nn2c(Cl)cc(Cl)nc2c1S(=O)(=O)c1ccccc1 | 166 to 167
39 | COc1ccc(Cn2nnnc2C2N3C(=O)C(NC(c4ccccc4)(c4ccccc4)c4ccccc4)C3SC2(C)C)cc1 (centres undefined) | 178 to 182
40 | O=c1nc(N2CCN(c3ccc(Cl)cc3)CC2)sc2c([N+](=O)[O-])cc([N+](=O)[O-])cc12 | 178 to 180
41 | CN1NC(C2CCCC2)=CC1C(=O)O (centres undefined) | 123 to 128
42 | CCCCS(=O)(=O)NC1Cc2ccc(C3=NNC(=O)CC3(C)C)cc2C1 (centres undefined) | 159 to 161
43 | N#Cc1ncn2c(C(F)(F)F)cc(-c3ccccn3)nc12 | 205
44 | COC(=O)COc1ccc(SCc2cc(-c3ccc(C(F)(F)F)cc3)on2)c2c1CCCO2 | 112 to 113
45 | c1ccc(CNc2nc3c(c4[nH]c(Cc5ccccc5)nc24)CCCC3)cc1 | 199 to 200
46 | CCC(Cn1nccn1)n1nnc2cc3c(=O)n(C(C)Cn4ncnn4)nnc3cc2c1=O (centres undefined) | 162 to 163
47 | OCCNc1c2c(nc3cn[nH]c13)CCCC2 | 205 to 210
48 | Cc1noc(NS(=O)(=O)c2ccc(-c3ccccc3)cc2)c1Cl | 129 to 132
49 | CNC1CC=C(c2c[nH]c3cc([N+](=O)[O-])ccc23)CC1 (centres undefined) | 170 to 172

Results, then the compound that gave them:

Row | melting point [°C] | SMILES
50 | 162 to 163 | CCCc1ccc(OCc2ccc(OCc3nc(-c4ccccc4)oc3C)cc2)cc1OCC(=O)O
51 | 256 to 257 | O=C(O)Cc1c(C(=O)c2ccncc2)[nH]c2cc(Cl)ccc12
52 | 123 to 125 | COc1ccc([C@H]2N[C@H](c3ccc4c(c3)OCO4)c3ccccc32)cc1 (racemic)
53 | 218 | CONC(=O)c1ccccc1S(=O)(=O)NC(=O)Nc1nc(C)cc(C)n1
54 | 124 to 126 | CCOC(=O)c1c(N2CCN(Cc3ccccc3)CC2)n[nH]c1C
55 | 208 to 211 | COc1ccc(CNC(=O)c2cc3c(=O)n(CCC(=O)c4ccccc4)c(=O)n(C)c3s2)cc1
56 | 185 to 186 | CC(=O)Oc1cc2ccccc2cc1C(=O)O
57 | 231 to 233 | CCOC(=O)C1=C(C)NC(C)=C(C(=O)OCC)C1c1ccc(-n2ccnc2)cc1
58 | 214 to 216 | CCCc1c(OCc2ccccc2C(=O)O)ccc(C(C)=O)c1O
59 | 183 to 185 | CN1C(=O)CC[C@]2(C)c3ccc(C=Cc4cncc5ccccc45)cc3CC[C@@H]12
60 | 68 to 69 | CN1CCCCC1COC(=O)c1cccc(NC(=O)C(CS)Cc2ccccc2)c1 (centres undefined)
61 | 226 | COc1ccc(C(=O)Nc2cccnc2)c2c1oc1ccccc12
62 | 200 to 201 | CCc1ccc2c(c1)c(-c1ccccc1Cl)c(C(=O)O)c(=O)n2C
63 | > 260 | CN(C)c1ccc(Nc2cccc3c2C(=O)N(C2CCC(=O)NC2=O)C3=O)cc1 (centres undefined)
64 | 140 to 141 | Cc1cc(Cl)cc(COc2cccc(OCc3ccc4cc(F)ccc4n3)c2)c1OCC(=O)O
65 | 119 to 120 | CCOC(=O)c1c(-c2ccccc2)c2cc(Cl)ccc2n1CC#N
66 | 181 to 182 | COc1ccc(N2CCN(c3c(C)c(C)c4c(c3C)C(N3CCOCC3)C(C)(C)O4)CC2)cc1 (centres undefined)
67 | 259 to 260 | CCCC(=O)NCc1ccc(NC(=O)/C=C/c2cnn(C)c2-c2ccc(F)cc2)cc1
68 | 201 to 204 | CC(C)(Cc1ccc(OCCCC(=O)O)cc1)NCC(O)c1cc(O)cc2c1OCC(=O)N2 (centres undefined)
69 | 190 to 192 | CCCn1c(CCO)nc2c(N)nc3cc(OCCCNC(=O)C(C)C)ccc3c21
70 | 218 to 220 | O=C(Nc1ccc(N2CCN(C(=O)Nc3ccc(OCCO)cc3C(F)(F)F)CC2)cc1)Nc1cccc2c1OCC2
71 | 117 to 119 | Cn1nc2ccccc2c1C(=O)NC1CCN(CCc2ccc(F)cc2)C1 (centres undefined)
72 | 110 to 112 | NC(=O)CCCOc1cccc(CCNS(=O)(=O)c2ccc(Cl)cc2)c1

Row | melting point [°C] | SMILES
73 | 92 | CCOC(=Cc1ccc(-c2cccc(N(C)C(=O)Nc3ccc(C)cc3)c2)cc1)C(=O)O
74 | 79 to 85 | CCOC(=O)CCn1c(C(=O)Nc2nc(-c3cc(OC)c(Cl)cc3OC)c(CCC3CCCCC3)s2)cc2ccccc21
75 | 216 to 220 | C=C(c1cncn1Cc1ccccc1)C(c1ccc(C)cc1)c1ccc(C)cc1
76 | 49 to 51 | CC(=C(Cl)Cl)c1ccccc1Nc1ccccc1C
77 | 159 | CCCCCC(=O)OCC(=O)C1C(C)CC2C3=C(C(=O)CC21C)C1(C)C=CC(=O)C=C1C(F)C3 (centres undefined)
78 | 194 to 195 | CCOP(=O)(/C=C/c1cn(-c2ccccc2)nc1OCc1ccc(OCc2nc(-c3ccc(C(=O)O)cc3)oc2C)c(OC)c1)OCC
79 | 204 | CCC1(C)CCN(C(=O)CN(C(=O)CNC(=O)Nc2cccc(C)c2)c2ccccc2)CC1
80 | 165 to 166 | COc1ccc(COc2cccnc2NC(=N)Nc2ccc(Cl)cc2)cc1
81 | 225 to 226 | COc1ccc(C(=O)COc2ccc(C(=O)O)c(O)c2)cc1C12CC3CC(CC(C3)C1)C2
82 | 183 to 184 | COc1ccc2c(ccn3c(C)nnc23)c1
83 | 154 | CCN(CC)CCC1CCN(C(=O)N2c3ccccc3C(=O)Nc3cccnc32)CC1
84 | 176 to 177 | CCOC(=O)c1cc2cc(OCCCS(C)(=O)=O)cc(N(C)S(=O)(=O)c3ccccn3)c2[nH]1
85 | 251 to 253 | CCOC(=O)c1cn(C2CC2)c2cc(Br)c(F)cc2c1=O
86 | 167 to 168 | CCc1cnc2c(NC(=O)c3c(Cl)cccc3Cl)cccc2c1CC(=O)OC
87 | 222 to 223 | Cn1cc(-c2c(-c3ccc(F)cc3)nn3ccncc23)ccc1=O
88 | 82 to 94 | CC(C)=C1C(=O)N(c2ccc(Cc3ccc(N)cc3)cc2)C(=O)/C1=C(\C)c1cc(-c2ccccc2)sc1C
89 | 46 to 53 | CCOC(=O)C(CC)C(O)(c1ccccc1)c1ccc(O)cc1 (centres undefined)
90 | 252 to 253 | CS(=O)(=O)OCc1ccc(-c2nnc3n2-c2cccnc2Nc2ccccc2-3)cc1
91 | 202 to 204 | COCc1nc2c(N)nc3ccccc3c2n1Cc1ccccc1
92 | 108 to 109 | Cc1ccc(/C=C/c2nc(COc3ccc(CCCCn4ccnc4CCO)cc3)co2)cc1
93 | 142 to 143 | COc1ccc(-c2cc(=O)n(CC3CC3)nc2-c2ccc(OC)c(F)c2)cc1F
94 | 275 to 284 | COC(=O)c1ccc(-c2nc3cc(C(=O)O)ccc3o2)cc1
